Results on 16 molecules are retold here after patent US20240228490A1, “HETEROCYCLIC DERIVATIVE INHIBITOR AND PREPARATION METHOD THEREFOR AND APPLICATION THEREOF” (Shanghai Hansoh Biomedical Co., Ltd., priority 2021, published 2024).

Series [1] can be described thus: Bidirectional permeability through Caco-2 cell model. The following applies: human. For orientation: Passage across Caco-2 layers is used to estimate intestinal permeability.
Description: (§1) 100 μL of transport buffer (HBSS containing 10 μM test compound, 0.5% BSA, and 0.5% DMSO) was added to the administration end of A to B • b. 300 μL of transport buffer (HBSS containing 0.5% BSA) was added to the receiving end of A to B • c. 300 μL of transport buffer (HBSS containing 10 μM test compound, 0.5% BSA, and 0.5% DMSO) was added to the administration end of B to A • d. 100 μL of transport buffer (HBSS containing 0.5% BSA) was added to the receiving end of B to A • e. Incubation for 2 hours • d. Samples were taken, processed and detected by mass spectrometry.
(§2) • Instrument: liquid chromatography; • Chromatographic column: Waters XSelect HSS T3 C18 (2.1*50 mm, 2.5 μm); • Mobile phase: phase A: water containing 0.1% formic acid; phase B: acetonitrile containing 0.1% formic acid.
(§3) • Instrument: API4000 liquid chromatography-mass spectrometer; • Ion source: electrospray ionization source (ESI); • Detection method: positive ion detection; • Scan mode: multiple reaction monitoring (MRM) mode.
A short description of series [2]: Pharmacokinetic assay in Balb/C mice. Conditions: male, mouse, plasma, po, 1 mg/kg.
Description: Balb/C mice were used as test animals.
Male Balb/C mice (6 mice per example), purchased from Shanghai Jiesijie Laboratory Animal Co., LTD, with Certificate No.: SCXK (Shanghai) 2013-0006 N0.311620400001794.
5 g of hydroxyethyl cellulose (HEC, CMC-Na, viscosity: 800-1200 Cps) was weighed and dissolved in 1000 mL of purified water, followed by the addition of 10 g of Tween 80. The mixture was mixed well to obtain a clear solution.
2.05 mg of the compound was weighed and dissolved in the solution. The mixture was shaken well, crushed in a cell crusher for 1 minute, and sonicated for 15 minutes to obtain a suspension with a concentration of 0.1 mg/mL.
After an overnight fast, male Balb/C mice were administered p.o. with the test compound at a dose of 1 mg/kg and a volume of 10 mL/kg.
0.04 mL of blood was taken from the orbit of the mouse at 0, 0.5, 1, 2, 4, 6, 8 and 24 hours after the administration. The samples were stored in EDTA-K2 tubes, and centrifuged for 6 minutes at 4° C., 6000 rpm to separate the plasma. The plasma samples were stored at −80° C. The mouse was fed 4 hours after the administration.
• Liquid chromatography condition: Shimadzu LC-20AD pump • Mass spectrometry condition: AB Sciex API 4000 mass spectrometer • Chromatographic column: phenomenex Gemiu 5 μm C18 50×4.6 mm • Mobile phase: Eluent A was 0.1% formic acid in water, and Eluent B was acetonitrile • Flow rate: 0.8 mL/min • Elution time: 0-4.0 minutes, the eluent is as follows:
The main parameters of pharmacokinetics were calculated by WinNonlin 8.2.
Another series concerns the target PARP1 enzyme (Homo sapiens (Human), UniProt P09874). As to the kind of experiment: Inhibitory activity on PARP1 enzyme (chemiluminescence). In kind it is biochemical. As to the method: The inhibitory activity of the compounds on PARP1 enzyme was determined by the chemiluminescence method in the experiment. The experiment was carried out in a 384-well plate. Coating histones in a 384-well plate: 5×histone solution was diluted 5 folds with PBS, added to a 384-well ELISA plate (25 μL per well), and incubated at 4° C. overnight. […] A mixture of PARP reaction biotin-labeled substrate, activated DNA, 10×PARP buffer and water was added (12.5 μL per well). Compound solutions with different concentrations were formulated using the experimental buffer (10% DMSO aqueous solution containing 1.25 mM DTT). The final detection concentration started from 100 nM, with 3-fold dilution and 8 concentrations. The compound solutions were added to the reaction wells of the 384-well plate (2.5 μL per well). 2.5 μL of 10% DMSO aqueous solution containing 1.25 mM DTT was added to the positive control well and blank well (2.5 μL per well). […] The plate was centrifuged at 1000 rpm for 1 minute, and reacted at room temperature for 60 minutes. […] Streptavidin-HRP solution diluted 50 folds with Blocking buffer 3 was added (25 μL per well), and the plate was incubated at room temperature for 30 minutes. […] The luminescence reaction solution obtained by mixing ECL substrate A and ELISA ECL substrate B (1:1) was added (50 μL per well) for reaction. The chemiluminescence values were measured immediately with a BioTek Synergy H1 or Envision instrument.
The chemiluminescence values were measured with a BioTek Synergy H1 or Envision instrument. The inhibition rate was calculated, and the concentration and inhibition rate were fitted to a nonlinear regression curve using Graphpad Prism software to obtain the IC50 value.

Series [3] relates to human colorectal cancer cell line DLD-1 BRCA2−/− subcutaneous xenograft tumor. Put plainly: In vivo pharmacodynamic study in DLD-1 BRCA2−/− subcutaneous xenograft tumor model. Conditions: oral, once/day, 21 days.
Description: BALB/c nude mice, 6 to 8 weeks old, 9, purchased from the Experimental Animal Management Department of Shanghai Institute of Family Planning
The recovered cells were plated in a cell culture flask (the cell type, date, name of the experimenter and the like were labeled on the wall of the flask), and cultured in a CO2 incubator (the temperature was 37° C. and the CO2 concentration was 5% in the incubator). • b. Cells were passaged once every three days. After passage, the cells continued to be cultured in the CO2 incubator. This process was repeated until the number of cells was sufficient for the in vivo efficacy test. • c. The cultured cells were collected, and counted with an automatic cell counter. According to the counting results, the cells were resuspended with PBS to obtain a cell suspension (density: 5×10^7/mL), which was placed in an ice box for later use.
The nude mice were labeled with disposable universal ear tags for rats and mice before inoculation. • b. During the inoculation, the cell suspension was mixed well. 0.1 to 1 mL of the cell suspension was drawn with a 1 mL syringe, air bubbles were removed, and then the syringe was placed on an ice pack for later use. • c. The nude mouse was bound with the left hand. The position on the right side of the back close to the right shoulder of the nude mouse (inoculation site) was disinfected with 75% alcohol. Inoculation started after 30 seconds. • d. The test nude mice were successively inoculated (each mouse was inoculated with 0.1 mL of cell suspension).
According to the tumor growth, the tumor was measured on 10 to 18 days after the inoculation, and the tumor size was calculated.
Calculation of tumor volume: tumor volume (mm^3)=length (mm)×width (mm)×width (mm)/2 • b. The tumor-bearing mice were grouped according to their body weight and tumor size by random grouping. • c. […] Tumors were measured and the mice were weighed twice a week after the administration of test compounds began. • e. Animals were euthanized at the end of the experiment. • f. Data were processed by using softwares such as Excel.
Series [4] deals with BRCA2 Knockout DLD-1 cells. As to the kind of experiment: Inhibition of proliferation of BRCA2 Knockout DLD-1 cells (CellTiter-Glo). The following applies: Homo sapiens, about 144 hours incubation. The class given is cell-based. As to the method:
BRCA2 Knockout DLD-1 cells were cultured using RPMI1640 culture medium containing 10% FBS to an appropriate cell density. The cells were collected, and adjusted to an appropriate cell concentration using the complete culture medium. The cell suspension was spread on a 96-well plate (90 μL per well), and placed in a 37° C., 5% CO2 incubator overnight. Compound solutions of different concentrations were formulated using DMSO and culture medium, and vehicle control was set up. The compound solutions were added to the 96-well plate (10 μL per well), and the plate was incubated in a 37° C., 5% CO2 incubator for about 144 hours. CellTiter-Glo solution was added, and the plate was shaken to mix evenly, and incubated in the dark for 10 to 30 minutes. The values were measured with a Synergy H1 or Envision microplate reader.
The inhibition rate was calculated using the luminescence signal value. The concentration and inhibition rate were fitted to a nonlinear regression curve using Graphpad Prism software to obtain the IC50 value.
A general note: Cellular ATP, detected with luciferase, serves as a proxy for viable cell number.

The next series can be described thus: in vitro. The following applies: human, Caco-2.
The next series in a line: in vivo. The following applies: male, Balb/C, mouse, po, 1 mg/kg.

PARP1 enzyme, sequence (P09874 whole entry): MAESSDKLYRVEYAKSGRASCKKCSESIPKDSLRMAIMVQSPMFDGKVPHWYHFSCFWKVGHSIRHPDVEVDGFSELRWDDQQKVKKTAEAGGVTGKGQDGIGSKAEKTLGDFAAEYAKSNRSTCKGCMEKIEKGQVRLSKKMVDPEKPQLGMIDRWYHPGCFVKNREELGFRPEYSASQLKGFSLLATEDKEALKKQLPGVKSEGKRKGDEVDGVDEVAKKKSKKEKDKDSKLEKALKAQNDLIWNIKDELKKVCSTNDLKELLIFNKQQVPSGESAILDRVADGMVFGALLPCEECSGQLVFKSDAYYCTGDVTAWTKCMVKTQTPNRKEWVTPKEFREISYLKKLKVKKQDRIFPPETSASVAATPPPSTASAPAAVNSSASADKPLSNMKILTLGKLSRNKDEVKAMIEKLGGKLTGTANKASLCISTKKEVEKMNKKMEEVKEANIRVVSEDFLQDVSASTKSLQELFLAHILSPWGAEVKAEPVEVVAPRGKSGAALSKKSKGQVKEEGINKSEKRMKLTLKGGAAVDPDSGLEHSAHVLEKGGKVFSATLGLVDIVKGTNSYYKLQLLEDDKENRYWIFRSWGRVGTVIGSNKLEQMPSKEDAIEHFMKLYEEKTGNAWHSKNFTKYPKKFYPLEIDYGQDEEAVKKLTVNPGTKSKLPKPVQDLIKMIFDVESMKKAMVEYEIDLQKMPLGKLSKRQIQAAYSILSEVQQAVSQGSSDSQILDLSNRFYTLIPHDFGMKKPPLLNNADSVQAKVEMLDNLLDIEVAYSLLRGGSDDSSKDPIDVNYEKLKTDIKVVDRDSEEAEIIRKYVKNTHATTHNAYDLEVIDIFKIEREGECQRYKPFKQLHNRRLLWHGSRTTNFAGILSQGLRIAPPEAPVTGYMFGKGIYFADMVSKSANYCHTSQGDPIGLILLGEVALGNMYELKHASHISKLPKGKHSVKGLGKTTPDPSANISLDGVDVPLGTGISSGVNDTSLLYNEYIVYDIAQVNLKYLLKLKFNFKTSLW
Description for in vitro: as §1, §2, §3

As to `CCc1cc2ncc(CN3CCC(c4ccc(C(=O)NC)nc4)CC3)cc2[nH]c1=O` [Example 2, 5-(1-((7-Ethyl-6-oxo-5,6-dihydro-1,5-naphthyridin-3-yl)methyl)piperidin-4-yl)-N-methylpicolinamide], in series [1], the apical-to-basolateral permeability (Papp A→B) at 2 h, 10 μM was 9.42 ×10⁻⁶ cm/s and the Papp B→A at 2 h, 10 μM was 13.5 ×10⁻⁶ cm/s.

Regarding `CCc1cc2ncc(CN3CCN(c4cnc5c(NC)nccc5c4)CC3)cc2[nH]c1=O` [Example 3, 3-Ethyl-7-((4-(8-(methylamino)-1,7-naphthyridin-3-yl)piperazin-1-yl)methyl)-1,5-naphthyridin-2(1H)-one], in series [2], the AUC(0-t) was determined as 12700 ng·h/mL, the Cmax turned out to be 1570 ng/mL, the Tmax was 0.5 h and the half-life is 3.7 h. Moreover, the IC50 on PARP1 enzyme worked out at 0.4 nM. Also, in series [1], the Papp A→B at 2 h, 10 μM is 7.15 ×10⁻⁶ cm/s; the Papp B→A at 2 h, 10 μM came out at 24.1 ×10⁻⁶ cm/s; the efflux ratio at 2 h, 10 μM is 3.4. In series [3], the “Animal's body weight” value is given as “no significant decrease” and the “Tumor growth inhibition rate TGI (%)” value is listed as above 90%.

For `CCc1cc2ncc(CN3CC=C(c4ccc(C(=O)NC5CC5)nc4)CC3)cc2[nH]c1=O` [Example 29, N-Cyclopropyl-1′-((7-ethyl-6-oxo-5,6-dihydro-1,5-naphthyridin-3-yl)methyl)-1′,2′,3′,6′-tetrahydro-[3,4′-bipyridine]-6-carboxamide], the 50% inhibitory concentration (IC50) in series [4] turned out to be 1.9 nM. Besides, in series [2], the AUC(0-t) stood at 60600 ng·h/mL, the Cmax amounted to 8270 ng/mL, the Tmax came out at 0.5 h and the half-life was 3.7 h. Further, the IC50 on PARP1 enzyme was determined as 0.98 nM. In series [1], the Papp A→B at 2 h, 10 μM stood at 12.2 ×10⁻⁶ cm/s; the Papp B→A at 2 h, 10 μM stood at 19 ×10⁻⁶ cm/s; the efflux ratio at 2 h, 10 μM is 1.6. Moreover, in series [3], the “Animal's body weight” value was “no significant decrease” and the “Tumor growth inhibition rate TGI (%)” value is above 90%.

As to `CCc1cc2ncc(CN3CC=C(c4ccc(C(=O)NC)nc4C#N)CC3)cc2[nH]c1=O` [Example 35, 2-Cyano-1′-((7-ethyl-6-oxo-5,6-dihydro-1,5-naphthyridin-3-yl)methyl)-N-methyl-1′,2′,3′,6′-tetrahydro-[3,4′-bipyridine]-6-carboxamide], in series [4], the half-maximal inhibitory concentration (IC50) was 2.3 nM. For the same molecule, in the series “in vitro”, the Papp A→B at 2 h, 10 μM turned out to be 5.19 ×10⁻⁶ cm/s; the Papp B→A at 2 h, 10 μM is 15.7 ×10⁻⁶ cm/s; the efflux ratio at 2 h, 10 μM is 3. Further, in “in vivo”, the area under the curve AUC(0-t) stood at 43200 ng·h/mL, the highest level (Cmax) was 6100 ng/mL, the Tmax came to 0.5 h and the half-life was 2.7 h. Also, the IC50 on PARP1 enzyme worked out at 1 nM. Also, the “Tumor growth inhibition rate TGI (%)” value in series [3] is given as above 90%.

In the case of `CCc1cc2ncc(CN3CC=C(c4ccc(C(=O)NC)nc4F)CC3)cc2[nH]c1=O` [Example 36, 1′-((7-Ethyl-6-oxo-5,6-dihydro-1,5-naphthyridin-3-yl)methyl)-2-fluoro-N-methyl-1′,2′,3′,6′-tetrahydro-[3,4′-bipyridine]-6-carboxamide], in series [4], the IC50 was determined as 1.6 nM. For the same molecule, in series [2], the area under the curve AUC(0-t) was found to be 61900 ng·h/mL, the Cmax was 6550 ng/mL, the Tmax was 0.5 h and the half-life was 4.6 h. Besides, the IC50 at PARP1 enzyme is 0.8 nM. Further, in series [1], the Papp A→B at 2 h, 10 μM was 14.8 ×10⁻⁶ cm/s; the basolateral-to-apical permeability (Papp B→A) at 2 h, 10 μM is 15.6 ×10⁻⁶ cm/s; the efflux ratio at 2 h, 10 μM amounted to 1.1.

Take `CNC(=O)c1ccc(C2=CCN(Cc3cnc4cc(C5CC5)c(=O)[nH]c4c3)CC2)cn1` [Example 45, 1′-((7-Cyclopropyl-6-oxo-5,6-dihydro-1,5-naphthyridin-3-yl)methyl)-N-methyl-1′,2′,3′,6′-tetrahydro-[3,4′-bipyridine]-6-carboxamide]: in series [4], the IC50 was 3.5 nM. In the series “in vitro”, the Papp A→B at 2 h, 10 μM was 9.8 ×10⁻⁶ cm/s; the basolateral-to-apical permeability (Papp B→A) at 2 h, 10 μM stood at 15.3 ×10⁻⁶ cm/s; the efflux ratio at 2 h, 10 μM came out at 1.6. Also, in “in vivo”, the AUC(0-t) is 221000 ng·h/mL, the Cmax is 8980 ng/mL, the Tmax is 1 h and the half-life is 23 h. In addition, the IC50 on PARP1 enzyme came out at 0.8 nM.

As for `CCc1cc2ncc(CN3CC=C(c4cnc(C(=O)NC)s4)CC3)cc2[nH]c1=O` [Example 46, 5-(1-((7-Ethyl-6-oxo-5,6-dihydro-1,5-naphthyridin-3-yl)methyl)-1,2,3,6-tetrahydropyridin-4-yl)-N-methylthiazole-2-carboxamide], the IC50 on PARP1 enzyme is 0.6 nM. The “Tumor growth inhibition rate TGI (%)” value in series [3] was above 90%.

Regarding `CCc1cc2ncc(CN3CC=C(c4ncc(C)n4C)CC3)cc2[nH]c1=O` [Example 53, 7-((4-(1,5-Dimethyl-1H-imidazol-2-yl)-3,6-dihydropyridin-1(2H)-yl)methyl)-3-ethyl-1,5-naphthyridin-2(1H)-one], the IC50 in series [4] turned out to be 7.5 nM; at PARP1 enzyme it was 0.96 nM.

With `CCc1cc2ncc(CN3CC=C(c4ccc(C(=O)NC)nc4Cl)CC3)cc2[nH]c1=O` [Example 56, 2-Chloro-1′-((7-ethyl-6-oxo-5,6-dihydro-1,5-naphthyridin-3-yl)methyl)-N-methyl-1′,2′,3′,6′-tetrahydro-[3,4′-bipyridine]-6-carboxamide], the figures for the IC50 (in series [4]; on PARP1 enzyme) were 1 nM and 1.3 nM, respectively.

`CCc1cc2ncc(CN3CC=C(c4ccc(C(=O)NCC#N)nc4)CC3)cc2[nH]c1=O` [Example 58, N-(Cyanomethyl)-1′-((7-ethyl-6-oxo-5,6-dihydro-1,5-naphthyridin-3-yl)methyl)-1′,2′,3′,6′-tetrahydro-[3,4′-bipyridine]-6-carboxamide]: the IC50 in series [4] worked out at 2.4 nM; at PARP1 enzyme, 0.9 nM.

In the case of `CCc1cc2ncc(CN3CC=C(c4ccc(C(=O)NC5(C#N)CC5)nc4)CC3)cc2[nH]c1=O` [Example 59, N-(1-Cyanocyclopropyl)-1′-((7-ethyl-6-oxo-5,6-dihydro-1,5-naphthyridin-3-yl)methyl)-1′,2′,3′,6′-tetrahydro-[3,4′-bipyridine]-6-carboxamide], the half-inhibitory concentration (IC50) worked out at 2.7 nM in series [4] and 0.8 nM on PARP1 enzyme.

For `CCc1cc2ncc(CN3CCN(c4cnc5c(NC)nc(C)cc5c4)CC3)cc2[nH]c1=O` [Example 72, 3-Ethyl-7-((4-(6-methyl-8-(methylamino)-1,7-naphthyridin-3-yl)piperazin-1-yl)methyl)-1,5-naphthyridin-2(1H)-one], the IC50 in series [4] was 4.8 nM. Moreover, in series [1], the Papp A→B at 2 h, 10 μM is 5.23 ×10⁻⁶ cm/s; the Papp B→A at 2 h, 10 μM stood at 12.7 ×10⁻⁶ cm/s; the efflux ratio at 2 h, 10 μM turned out to be 2.5.

With `CCc1cc2ncc(CN3CCC(c4ccc(C(=O)NC)nc4)=C(F)C3)cc2[nH]c1=O` [Example 81, 1′-((7-Ethyl-6-oxo-5,6-dihydro-1,5-naphthyridin-3-yl)methyl)-5′-fluoro-N-methyl-1′,2′,3′,6′-tetrahydro-[3,4′-bipyridine]-6-carboxamide], the half-inhibitory concentration (IC50) amounted to 1.5 nM in series [4] and 0.9 nM on PARP1 enzyme.

As for `CCc1cc2ncc(CN3CC=C(c4ccc(C(=O)NCC(F)(F)F)nc4)CC3)cc2[nH]c1=O` [Example 83, 1′-((7-Ethyl-6-oxo-5,6-dihydro-1,5-naphthyridin-3-yl)methyl)-N-(2,2,2-trifluoroethyl)-1′,2′,3′,6′-tetrahydro-[3,4′-bipyridine]-6-carboxamide], the concentration for half-maximal inhibition (IC50) (in series [4]; on PARP1 enzyme) was 1.4 nM each time.

On to `CNC(=O)c1ccc(C2=CCN(Cc3cnc4cc(C(F)(F)F)c(=O)[nH]c4c3)CC2)cn1` [Example 84, N-Methyl-1′-((6-oxo-7-(trifluoromethyl)-5,6-dihydro-1,5-naphthyridin-3-yl)methyl)-1′,2′,3′,6′-tetrahydro-[3,4′-bipyridine]-6-carboxamide], for which the half-maximal inhibitory concentration (IC50) stood at 5.1 nM in series [4] and 2.7 nM on PARP1 enzyme.

For `CCc1cc2ncc(C(C)N3CC=C(c4ccc(C(=O)NC)nc4)CC3)cc2[nH]c1=O` (stereo not shown) [Example 93, 1′-(1-(7-Ethyl-6-oxo-5,6-dihydro-1,5-naphthyridin-3-yl)ethyl)-N-methyl-1′,2′,3′,6′-tetrahydro-[3,4′-bipyridine]-6-carboxamide], the IC50 in series [4] was 3.6 nM; at PARP1 enzyme it was 2.1 nM.

For orientation: Papp A→B means the apparent permeability from the apical to the basolateral side of a cell layer. A word on the Papp B→A: it is the apparent permeability from the basolateral to the apical side of a cell layer. As usually defined, the AUC(0-t) is exposure summed from dosing to a finite time, without extrapolation to infinity. Read a low AUC(0-t) as less exposure. As a reminder, the Cmax is the highest concentration seen after dosing. For orientation: Tmax means the time at which the peak concentration occurs. By half-life is commonly meant the time needed for the level to fall by half in the phase considered. A higher half-life goes with slow loss. By IC50 is commonly meant the midpoint of a concentration-inhibition curve. What is called efflux ratio is a quotient of directional permeabilities that is used to spot active efflux.
